Columns and labels:
Type in all cases: cell-based
E. coli DH5α = test: Antibacterial activity: MIC and growth curve against E. coli DH5α in 96-well plate; details: minimal inhibitory concentration against E. coli DH5α; 96-well plate, 5×10^5 CFU/mL, 37° C., judged after 8 h
In short: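 MIC taken as lowest protein level with no bacterial growth, tracked by A600 every 30 min during 37 °C, 175 rpm culture. Two-fold protein series 50-12.5 μg/mL final, triplicate wells, against 5×10^5 CFU/mL of LB-washed mid-log cells.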

E. coli BL21 = test: MIC against Gram-negative bacteria: E. coli BL21; details: 5×10^5 CFU/mL
In short: (§1)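 Broth microdilution, LB medium, final inoculum 5×10^5 CFU/mL from McFarland 0.5 cultures. Recombinant human EGF domain proteins tested in two-fold steps, n=3. MIC: lowest concentration, no growth.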

Pseudomonas aeruginosa = test: MIC against Gram-negative bacteria: Pseudomonas aeruginosa; details: 5×10^5 CFU/mL
In short: as §1

Klebsiella pneumonia = test: MIC against Gram-negative bacteria: Klebsiella pneumonia; details: 5×10^5 CFU/mL
In short: as §1

Enterobacter cloacae = test: MIC against Gram-negative bacteria: Enterobacter cloacae; details: 5×10^5 CFU/mL
In short: as §1

Aeromonas hydrophila = test: MIC against Gram-negative bacteria: Aeromonas hydrophila; details: 5×10^5 CFU/mL
In short: as §1

Citrobacter diversus = test: MIC against Gram-negative bacteria: Citrobacter diversus; details: 5×10^5 CFU/mL
In short: as §1

Moraxella catarrhalis = test: MIC against Gram-negative bacteria: Moraxella catarrhalis; details: 5×10^5 CFU/mL
In short: as §1

Proteus mirabilis = test: MIC against Gram-negative bacteria: Proteus mirabilis; details: 5×10^5 CFU/mL
In short: as §1

Proteus vulgaris = test: MIC against Gram-negative bacteria: Proteus vulgaris; details: 5×10^5 CFU/mL
In short: as §1

Serratia marcescens = test: MIC against Gram-negative bacteria: Serratia marcescens; details: 5×10^5 CFU/mL
In short: as §1

[1] = E. coli BL21, 10 h cultivation at 37° C.
[2] = Pseudomonas aeruginosa, 10 h cultivation at 37° C.
[3] = Klebsiella pneumonia, 10 h cultivation at 37° C.
[4] = Enterobacter cloacae, 10 h cultivation at 37° C.
[5] = Aeromonas hydrophila, 10 h cultivation at 37° C.
[6] = Citrobacter diversus, 10 h cultivation at 37° C.
[7] = Moraxella catarrhalis, 10 h cultivation at 37° C.
[8] = Proteus mirabilis, 10 h cultivation at 37° C.
[9] = Proteus vulgaris, 10 h cultivation at 37° C.
[10] = Serratia marcescens, 10 h cultivation at 37° C.
[11] = 10 h cultivation at 37° C., two-fold serial dilution

PRT485 (QADPCKFLACGEFAQCVKNERTEEAECRCKPGYDSQGSL; listed as Homo sapiens)
50 µg/mL: MIC (E. coli DH5α) | MIC against P. aeruginosa (Pseudomonas aeruginosa; 96-well plate, 37° C., 10 h) | MIC against C. diversus (Citrobacter diversus; 96-well plate, 37° C., 10 h) | MIC against S. marcescens (Serratia marcescens; 96-well plate, 37° C., 10 h)
12.5 µg/mL: MIC against E. coli BL21 (E. coli BL21; 96-well plate, 37° C., 10 h) | MIC against E. cloacae (Enterobacter cloacae; 96-well plate, 37° C., 10 h) | MIC against P. mirabilis (Proteus mirabilis; 96-well plate, 37° C., 10 h)
25 µg/mL: MIC against K. pneumonia (Klebsiella pneumonia; 96-well plate, 37° C., 10 h) | MIC against A. hydrophila (Aeromonas hydrophila; 96-well plate, 37° C., 10 h) | MIC against M. catarrhalis (Moraxella catarrhalis; 96-well plate, 37° C., 10 h) | MIC against P. vulgaris (Proteus vulgaris; 96-well plate, 37° C., 10 h)

PRT1363 (SEKRCPADCHNRGRCVDGRCECDDGFTGADCG; listed as Homo sapiens)
12.5 µg/mL: MIC (E. coli DH5α) | MIC against E. coli BL21 (E. coli BL21; [1]) | MIC against P. aeruginosa (Pseudomonas aeruginosa; [2]) | MIC against K. pneumonia (Klebsiella pneumonia; [3]) | MIC against A. hydrophila (Aeromonas hydrophila; [5]) | MIC against P. vulgaris (Proteus vulgaris; [9])
25 µg/mL: MIC against C. diversus (Citrobacter diversus; [6]) | MIC against P. mirabilis (Proteus mirabilis; [8])
50 µg/mL: MIC against E. cloacae (Enterobacter cloacae; [4]) | MIC against M. catarrhalis (Moraxella catarrhalis; [7]) | MIC against S. marcescens (Serratia marcescens; [10])

PRT1092 (ILLGCTHQQCLNNGTCIPHFQDGQHGFSCLCPSGYTGSLCE; listed as Homo sapiens)
25 µg/mL: MIC (E. coli DH5α) | MIC P. aeruginosa (Pseudomonas aeruginosa; [11]) | MIC E. cloacae (Enterobacter cloacae; [11]) | MIC M. catarrhalis (Moraxella catarrhalis; [11]) | MIC P. vulgaris (Proteus vulgaris; [11]) | MIC S. marcescens (Serratia marcescens; [11])
12.5 µg/mL: MIC K. pneumonia (Klebsiella pneumonia; [11]) | MIC A. hydrophila (Aeromonas hydrophila; [11]) | MIC C. diversus (Citrobacter diversus; [11])
50 µg/mL: MIC E. coli BL21 (E. coli BL21; [11]) | MIC P. mirabilis (Proteus mirabilis; [11])

PRT1385 (GVRSCPGDCNQRGRCEDGRCVCWPGYTGTDC; listed as Homo sapiens)
50 µg/mL: MIC against E. coli BL21 (E. coli BL21; [1]) | MIC against K. pneumonia (Klebsiella pneumonia; [3]) | MIC against A. hydrophila (Aeromonas hydrophila; [5]) | MIC against M. catarrhalis (Moraxella catarrhalis; [7]) | MIC against S. marcescens (Serratia marcescens; [10])
12.5 µg/mL: MIC (E. coli DH5α) | MIC against P. aeruginosa (Pseudomonas aeruginosa; [2]) | MIC against E. cloacae (Enterobacter cloacae; [4]) | MIC against C. diversus (Citrobacter diversus; [6]) | MIC against P. mirabilis (Proteus mirabilis; [8])
25 µg/mL: MIC against P. vulgaris (Proteus vulgaris; [9])

PRT5 (DGDQCETSPCQNQGKCKDGLGEYTCTCLEGFEGKNCE; listed as Homo sapiens)
25 µg/mL: MIC (μg/mL) P. aeruginosa (Pseudomonas aeruginosa; Pseudomonas aeruginosa, 96-well plate, 37° C., 10 h) | MIC (μg/mL) K. pneumonia (Klebsiella pneumonia; Klebsiella pneumonia, 96-well plate, 37° C., 10 h) | MIC (μg/mL) E. cloacae (Enterobacter cloacae; Enterobacter cloacae, 96-well plate, 37° C., 10 h) | MIC (μg/mL) C. diversus (Citrobacter diversus; Citrobacter diversus, 96-well plate, 37° C., 10 h) | MIC (μg/mL) M. catarrhalis (Moraxella catarrhalis; Moraxella catarrhalis, 96-well plate, 37° C., 10 h) | MIC (μg/mL) S. marcescens (Serratia marcescens; Serratia marcescens, 96-well plate, 37° C., 10 h)
12.5 µg/mL: MIC (E. coli DH5α) | MIC (μg/mL) E. coli BL21 (E. coli BL21; E. coli BL21, 96-well plate, 37° C., 10 h) | MIC (μg/mL) A. hydrophila (Aeromonas hydrophila; Aeromonas hydrophila, 96-well plate, 37° C., 10 h) | MIC (μg/mL) P. mirabilis (Proteus mirabilis; Proteus mirabilis, 96-well plate, 37° C., 10 h) | MIC (μg/mL) P. vulgaris (Proteus vulgaris; Proteus vulgaris, 96-well plate, 37° C., 10 h)
